Measurements from US20250084095A1, “Aminopyrimidine Derivatives as Cyclin-Dependent Kinase Inhibitors” (Accutar Biotechnology Inc., priority 2023, published 2025).

What was measured:
[1] = test system: 22RV1 cells; assay: Cell growth inhibition of 22RV1 cells (CellTiter-Glo); assay type: cell-based; settings: Homo sapiens, 22Rv1, 120 h, 5 days, CellTiter-Glo, read-out: 22RV1 Cell Growh GI50
Procedure, shortened: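 22RV1 cells were plated in RPMI1640 with FBS (20% in one version, 10% in the other) and dosed next day at various concentrations from DMSO stocks. After 5 days at 37 °C, viability was measured by CellTiter-Glo luminescence.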

[2] = test system: Phospho-Rb (Ser807/811) in MCF7 cells; assay: Phospho-Rb expression inhibition in MCF7 cells quantified by in cell Western; assay type: cell-based, human; settings: Homo sapiens, MCF7, 24 h, 24 hours, in cell Western, read-out: MCF7 pRb IC50
Procedure, shortened: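 MCF7 cells were seeded at 20,000/well, grown overnight, then treated 24 h at 37 °C with compound dilutions (0.1% DMSO from 1000× stocks). Fixed cells were co-stained for phospho-Rb Ser807/811 and total Rb. Near-infrared dual-channel in-cell Western imaging was the read-out.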

| SMILES | GI50 [1] [nM] | IC50 [2] [nM] |
| --- | --- | --- |
| Cc1c(C(C)(C)O)cnc2c(Cl)cc(-c3nc(N[C@@H]4C[C@H]5CO[C@H](O5)[C@H]4O)ncc3Cl)cc12 [Compound 284, (1S,3R,4S,5R)-3-((5-chloro-4-(8-chloro-3-(2-hydroxypropan-2-yl)-4-methylquinolin-6-yl)pyrimidin-2-yl)amino)-6,8-dioxabicyclo[3.2.1]octan-4-ol] | ≤ 120 | ≤ 40 |
| CC(C)(O)c1cnc2c(Cl)cc(-c3nc(N[C@@H]4C[C@H]5CO[C@H](O5)[C@H]4O)ncc3F)cc2c1Cl [Compound 285, (1S,3R,4S,5R)-3-((4-(4,8-dichloro-3-(2-hydroxypropan-2-yl)quinolin-6-yl)-5-fluoropyrimidin-2-yl)amino)-6,8-dioxabicyclo[3.2.1]octan-4-ol] | ≤ 120 | ≤ 40 |
| CC(C)(O)c1cnc2c(Cl)cc(-c3nc(N[C@@H]4C[C@H]5CO[C@H](O5)[C@H]4O)ncc3Cl)cc2c1Cl [Compound 286, (1S,3R,4S,5R)-3-((5-chloro-4-(4,8-dichloro-3-(2-hydroxypropan-2-yl)quinolin-6-yl)pyrimidin-2-yl)amino)-6,8-dioxabicyclo[3.2.1]octan-4-ol] | ≤ 120 | ≤ 40 |
| Cc1c(CN2CCC[C@@H](O)C2)n(C(C)C)c2cc(-c3nc(N[C@@H]4C[C@H]5CO[C@H](O5)[C@H]4O)ncc3F)ccc2c1=O [Compound 291, 7-(5-fluoro-2-(((1S,3R,4S,5R)-4-hydroxy-6,8-dioxabicyclo[3.2.1]octan-3-yl)amino)pyrimidin-4-yl)-2-(((R)-3-hydroxypiperidin-1-yl)methyl)-1-isopropyl-3-methylquinolin-4(1H)-one] | 120 to 450 | 150 to 1000 |
| Cc1c(CN2CC[C@@H](F)C2)n(C(C)C)c2cc(-c3nc(N[C@@H]4C[C@H]5CO[C@H](O5)[C@H]4O)ncc3F)ccc2c1=O [Compound 292, 7-(5-fluoro-2-(((1S,3R,4S,5R)-4-hydroxy-6,8-dioxabicyclo[3.2.1]octan-3-yl)amino)pyrimidin-4-yl)-2-(((R)-3-fluoropyrrolidin-1-yl)methyl)-1-isopropyl-3-methylquinolin-4(1H)-one] | 120 to 450 | 40 to 150 |
| CCCc1cn(C)c(=O)c2ccc(-c3nc(N[C@@H]4C[C@H]5CO[C@H](O5)[C@H]4O)ncc3Cl)cc12 [Compound 294, 6-(5-chloro-2-(((1S,3R,4S,5R)-4-hydroxy-6,8-dioxabicyclo[3.2.1]octan-3-yl)amino)pyrimidin-4-yl)-2-methyl-4-propylisoquinolin-1(2H)-one] | 450 to 3000 | 150 to 1000 |
| CC(C)(O)c1cnc2cc(-c3nc(N[C@@H]4C[C@H]5CO[C@H](O5)[C@H]4O)ncc3Cl)cc(F)c2n1 [Compound 295, (1S,3R,4S,5R)-3-((5-chloro-4-(8-fluoro-2-(2-hydroxypropan-2-yl)quinoxalin-6-yl)pyrimidin-2-yl)amino)-6,8-dioxabicyclo[3.2.1]octan-4-ol] | > 3000 | 150 to 1000 |
| CC(C)n1c(N2C(=O)OC[C@H]2C)nc2c(F)cc(-c3nc(N[C@@H]4C[C@H]5CO[C@H](O5)[C@H]4O)ncc3Cl)cc21 [Compound 296, (R)-3-(6-(5-chloro-2-(((1S,3R,4S,5R)-4-hydroxy-6,8-dioxabicyclo[3.2.1]octan-3-yl)amino)pyrimidin-4-yl)-4-fluoro-1-isopropyl-1H-benzo[d]imidazol-2-yl)-4-methyloxazolidin-2-one] | 450 to 3000 | 150 to 1000 |
| CC(C)[C@H]1COC(=O)N1c1nc2c(F)cc(-c3nc(N[C@@H]4C[C@H]5CO[C@H](O5)[C@H]4O)ncc3Cl)cc2n1C(C)C [Compound 297, (S)-3-(6-(5-chloro-2-(((1S,3R,4S,5R)-4-hydroxy-6,8-dioxabicyclo[3.2.1]octan-3-yl)amino)pyrimidin-4-yl)-4-fluoro-1-isopropyl-1H-benzo[d]imidazol-2-yl)-4-isopropyloxazolidin-2-one] | 450 to 3000 | 150 to 1000 |
